Data published in patent publication US11938098B2, “Method for killing HIV-infected cells using Bcl-2 inhibitors” (Mayo Foundation for Medical Education and Research, priority 2015, dated 2024).

Key:
Bcl-2 = assay: SPR binding of Casp8p41 to purified recombinant Bcl-2; conditions: Bcl-2 Arg146Ala vs Bcl-2, SPR
Procedure: After plasmids encoding GST tagged proteins were transformed into E. coli BL21 or DH5α by heat shock, bacteria were grown to an optical density of 0.8 and induced with 1 mM IPTG for 3 hours at 37° C. Bacteria were disrupted by freezing and thawing in calcium- and magnesium-free Dulbecco's phosphate buffered saline (PBS) containing 0.1% Triton X-100, 2 μg/mL aprotinin, 10 μg/mL leupeptin, 2 μg/mL pepstatin, and 1 mM PMSF, then sonicated three times for 15 sec/min on ice. GST-tagged proteins were purified with glutathione-agarose (Thermo Fisher Scientific, Rockford, Ill.).
Proteins for SPR were further purified by FPLC on Superdex 5200, concentrated in a centrifugal concentrator (Centricon, Millipore), dialyzed against Biacore buffer (10 mM HEPES (pH 7.4), 150 mM NaCl, 0.05 mM EDTA, and 0.005% (w/v) Polysorbate 20) and stored at 4° C. for <48 hours before use. Binding assays were performed at 25° C. on a Biacore 3000 biosensor after proteins were immobilized on a CMS chip (GE Healthcare). Ligands were injected at 30 μL/minute for 1 minute in Biacore buffer. Bound protein was allowed to dissociate in Biacore buffer at 30 μL/minute for 10 minutes and then desorbed with 2 M MgCl2. Binding kinetics were derived using BIA evaluation software (Biacore, Uppsala, Sweden).

[1] = tested on: Primary CD4 T cells from uninfected donors; assay: Viability of primary uninfected CD4 T cells by flow cytometry; assay type: cell-based, human; conditions: N=7, 1 μM, Day 5
Text: (§1) Jurkat cells and HEK 293T cells were obtained from American Type Culture Collection (Manassas, Va.). Jurkat/Bcl-2 cells were created by transfecting Jurkat with a pcDNA-3 encoding Bcl-2 (obtained from Dr. Stan Korsmeyer), selecting for 30 days, and assessing Bcl-2 expression by immunoblotting. HIV-uninfected PBMCs were harvested by ficoll gradient centrifugation from Leukocyte Reduction System apheresis chambers provided by healthy volunteer blood donors. […]
(§2) Immunophenotyping of T cell subsets was performed using multicolor flow cytometry with monoclonal antibodies to human CD3 (Alexa700, BD Pharmingen), CD4 (FITC, BD Pharmingen), CD8 (Pacific Blue, BD Pharmingen), CD27 (PE, BD Pharmingen), and CD45RO (ECD, Beckman Coulter). […] Intracellular expression of Casp8p41 was assessed as described elsewhere (Cummins et al., AIDS Res. Hum. Retroviruses, 30:476-479 (2014)). Cell death was measured using LIVE/DEAD® Fixable Aqua dead cell stain (Invitrogen) or TUNEL (Roche) according to manufacturers' protocols. Cell proliferation was measured using a CellTrace™ CFSE Cell Proliferation Kit (Life Technologies) according to manufacturer's protocol. […] FACS data were analyzed using FlowJo software (Tree Star Inc).

HIV-1IIIb = assay: Acute HIVIIIb infection of primary CD4 T cells in vitro (viability, p24, cell associated HIV DNA); assay type: cell-based
Text: as §1
as §2, with “Inc). […]” for “Inc).”

[2] = cited from earlier work
[3] = tested on: Primary CD4 T cells from ART-suppressed HIV positive patients; assay: Viability by trypan blue exclusion of CD4 T cells from ART-suppressed HIV positive patients; assay type: cell-based, human; conditions: bulk primary CD4 T cells from HIV infected ART suppressed patients; 1 μM; 24 hours
Procedure: FIGS. 11A-11D. […] FIG. 11A, Jurkat T cells pretreated with increasing concentrations of venetoclax or diluent DMSO were transfected with EGFP-Casp8p41, vector control, or no DNA, and assayed for cell death by TUNEL. Data are representative of three independent experiments. FIG. 11B, Primary CD4 T cells from seven uninfected donors were treated with venetoclax (1 μM) or diluent, and assayed for cell viability by flow cytometry over 5 days. FIG. 11C, Primary CD4 T cells from four uninfected donors were stimulated with phytohemagglutinin (2 μg/mL) in the presence of venetoclax (1 μM) or diluent and assayed for proliferation by CFSE staining. FIG. 11D, Primary CD4 T cells from seven ART-suppressed HIV positive patients were treated with venetoclax (1 μM) or DMSO control for 24 hours and assessed for viability by trypan blue exclusion.

[4] = in vivo; cited from earlier work
[5] = tested on: Primary CD4 T cells from uninfected donors; assay: Mitogen-induced proliferation of uninfected CD4 T cells by CFSE staining; assay type: cell-based, human; conditions: phytohemagglutinin, 1 μM, Day 3
Text: as §1, §2

Jurkat T cells = assay: TUNEL cell death in Jurkat T cells transfected with EGFP-Casp8p41, vector control or no DNA; assay type: cell-based; conditions: Jurkat cells expressing eGFP-Casp8p41, 1 μM
Procedure: HEK 293T cells were transfected using Lipofectamine (Invitrogen, Carlsbad, Calif.) according to manufacturer's protocol. Jurkat cells were transfected using a square wave electroporator (BXT, San Diego, Calif.) at 320 V. Immunophenotyping of T cell subsets was performed using multicolor flow cytometry with monoclonal antibodies to human CD3 (Alexa700, BD Pharmingen), CD4 (FITC, BD Pharmingen), CD8 (Pacific Blue, BD Pharmingen), CD27 (PE, BD Pharmingen), and CD45RO (ECD, Beckman Coulter). Central memory T cells (TCM) were defined as CD3^+CD4^+CD27^+CD45RO^+, and effector memory T cells (TEM) were defined as CD3^+CD4^+CD27^−CD45RO^+/− (Brenchley et al., J. Exp. Med., 200:749-759 (2004)). Intracellular expression of Casp8p41 was assessed as described elsewhere (Cummins et al., AIDS Res. Hum. Retroviruses, 30:476-479 (2014)). Cell death was measured using LIVE/DEAD® Fixable Aqua dead cell stain (Invitrogen) or TUNEL (Roche) according to manufacturers' protocols. Cell proliferation was measured using a CellTrace™ CFSE Cell Proliferation Kit (Life Technologies) according to manufacturer's protocol. FACS analysis was performed on either a FACScan or LSRII flow cytometer (BD Biosciences) based on multiparameter needs. FACS data were analyzed using FlowJo software (Tree Star Inc).

[6] = tested on: latently HIV infected CD4 T cells; assay: Ex vivo HIV reactivation (αCD3/αCD28) in CD4 T cells from suppressed HIV-infected patients; assay type: cell-based, human
Procedure: FIGS. 10A-10E. Selective Bcl-2 inhibition reduces HIV DNA associated with cells after viral reactivation ex vivo. […] After 72 hours, cell associated HIV DNA was measured. FIG. 10B, Freshly obtained peripheral CD4 T cells from an additional 16 suppressed HIV-infected patients were treated with ABT-199 or DMSO followed by αCD3/αCD28 for 72 hours before cell associated HIV DNA was measured. Depicted is the ratio of HIV DNA in ABT-199 treated vs. diluent treated samples for each patient with measurable HIV DNA in the diluent sample (n=11). FIG. 10C, Primary CD4 T cells from HIV-infected subjects were treated with ABT-199 or diluent and assayed for intracellular Casp8p41 and active caspase 3 in the TCM subset. Representative data of three independent subjects. FIG. 10D, Primary CD4 T cells from four HIV-infected subjects were treated with venetoclax or diluent and induced to reactivate HIV using CD3/CD28, and cell death measured in HIV P24 positive or negative cells using activated caspase 3 staining. FIG. 10E, HIV RNA was measured in cell culture supernatant from 6 of the 11 patient experiments from FIG. 10B.
Jurkat and Jurkat/Bcl-2 cells were infected overnight, while primary PHA-activated CD4 T cells were infected for 6 hours with HIV-1IIIb (NIH AIDS Reagent Program). Aliquots of the same infectious supernatant were used for all experiments. Cells were then washed three times and incubated in fresh medium. At the indicated time points, HIV-1 p24 in the cell culture supernatant was measured by RETROTEK™ ELISA kits (Zeptometrix Corporation) according to manufacturer's protocol. […] Briefly, total DNA was extracted using the Qiagen DNeasy Blood and Tissue kit (Hilden, Germany) and analyzed by a real-time polymerase chain reaction (PCR) assay specific for HIV-LTR and β-globin. […] Total HIV-1 DNA was compared and normalized with genomic DNA, determined by β-globin. HIV-1 proviral DNA levels were expressed as HIV-1 copies/β-globin genomic equivalent of 10^6 cells.

[7] = tested on: Jurkat T cells stably expressing eGFP; assay: Apoptosis and marker loss in Jurkat T cells stably expressing eGFP treated with CPT; assay type: cell-based
Procedure: FIGS. 12A-12G. Apoptotic cell death is associated with loss of protein and mRNA markers. Jurkat T cells stably expressing eGFP were treated with DMSO or CPT and assessed for cell viability by ATP content (FIG. 12A) and light scatter (FIG. 12B) over time. FIG. 12C, Expression of eGFP was measured by flow cytometry. FIG. 12D, Actin mRNA expression was assessed by qRT-PCR and expressed as mean Ct values normalized to baseline DMSO control. FIGS. 12E-12G, Cell death was assessed by active-caspase 3 expression (FIG. 12E), TUNEL (FIG. 12F), and LIVE/DEAD viability stain (FIG. 12G) and compared between eGFP positive and eGFP negative cells. FIG. 12A-12D values represent mean (range) of two independent experiments. FIGS. 12E-12G are representative of two independent experiments.
If BCL-2 neutralizes Casp8p41, then antagonizing BCL-2 should augment Casp8p41-induced killing, including when Casp8p41 is generated by latently HIV infected cells that reactivate the virus. Before testing this possibility, whether select markers (protein or nucleic acid based) remain detectable was first assessed when the cell of interest is undergoing death. Jurkat T cells stably expressing eGFP were treated with vehicle control or the cytotoxic quinolone alkaloid CPT to induce apoptosis, then examined for expression of eGFP (as a prototypic cytoplasmic protein) and actin mRNA (as a prototypic mRNA) over time.

DMNLLDIFIEMEKRVILGEGKLDILKRVCAQ (Casp8p41 BH3-like peptide) [Casp8p41 activator peptide]
decrease of affinity of Bcl-2 by substitution of Ala for Bcl-2 Arg146 (Bcl-2): 250 fold

CC1(C)CCC(CN2CCN(c3ccc(C(=O)NS(=O)(=O)c4ccc(NCC5CCOCC5)c([N+](=O)[O-])c4)c(Oc4cnc5[nH]ccc5c4)c3)CC2)=C(c2ccc(Cl)cc2)C1 [venetoclax]
viability, mean difference vs control treated cells [1]: −7.2±4.8%
survival or mitogen-induced proliferation of mock-infected CD4 T cells (HIV-1IIIb): had no effect
cases of dose limiting neutropenia ([2]; 40 NHL patients receiving monotherapy): 2 cases
tolerability in early phase clinical trials ([2]; human, in vivo): well tolerated
viability, mean difference vs DMSO control [3]: −4.7±1.6 % viable
peak plasma levels [4]: up to 5 μM
mean difference in percent CFSE low cells [5]: -1.1±7.9%
increase in cell death, mean difference vs diluent (Jurkat T cells): 25.7±10.3%
samples exhibiting a decrease of cell associated HIV DNA ([6]; freshly isolated primary CD4 T cell samples, 8 of 11): 73%
median cell death (active caspase 3) in p24− cells ([6]; αCD3/αCD28 reactivated, control 2.5%, P=0.189): 10.3%
proportion of HIV p24+ CD4+ cells that are active caspase 3+ ([6]; αCD3/αCD28 reactivated, control 23%, P=0.026): 47 % active caspase 3+

CC[C@@]1(O)C(=O)OCc2c1cc1n(c2=O)Cc2cc3ccccc3nc2-1 [CPT, camptothecin]
eGFP negative cells ([7]; by 48 hours): 97%
cell viability by cellular ATP content and light scatter ([7]; compared to diluent-treated cells): decreased cell viability
reduction of detectable actin message compared to diluent control ([7]; qRT-PCR): 34%
detectable eGFP (eGFP+ cells) ([7]; {}): 17 % eGFP+
